Reference: patent publication US8865182B2 (priority 2009, dated 2014)

The sequences below were run on HLA-A1 supertype (A*101, A*2601, A*2902, A*3002).
Format: binding, human

Point of comparison: “GMQIRGFVY (Influenza Virus) [SEQ ID NO: 207]”, “# Alleles Bound” value 2. Against it:
- GMIDGWYGY (Influenza Virus) [SEQ ID NO: 63] — the same, 2
- NMDRAVKLY (Influenza Virus) [SEQ ID NO: 68] — higher, 3
- VTRREVHIY [SEQ ID NO: 165] — lower, 1
- HIASMRRNY (Influenza Virus) [SEQ ID NO: 168] — lower, 1
- ASQGTKRSY (Influenza Virus) [SEQ ID NO: 110] — lower, 1
- MLASIDLKY [SEQ ID NO: 211] — higher, 4
- KISPLMVAY (Influenza Virus) [SEQ ID NO: 266] — the same, 2
- KMARLGKGY (Influenza Virus) [SEQ ID NO: 209] — lower, 1
- LTIGECPKY (Influenza Virus) [SEQ ID NO: 62] — higher, 3
- KSCINRCFY (Influenza Virus) [SEQ ID NO: 89] — lower, 1
- GTEKLTITY [SEQ ID NO: 268] — lower, 1
- KSCLPACVY [SEQ ID NO: 113] — the same, 2
- TIASVPAPRY (Influenza Virus) [SEQ ID NO: 140] — the same, 2
- SSLENFRAY (Influenza Virus) [SEQ ID NO: 166] — lower, 1
- GTVKDRSPY (Influenza Virus) [SEQ ID NO: 86] — the same, 2
- IVAITDWSGY (Influenza Virus) [SEQ ID NO: 88] — lower, 1
- ITQFESLKLY (Influenza Virus) [SEQ ID NO: 153] — lower, 1
- YSHGTGTGY (Influenza Virus) [SEQ ID NO: 206] — higher, 4
- RMFLAMITY (Influenza Virus) [SEQ ID NO: 208] — the same, 2
- QWSQEPTMLY (Influenza Virus) [SEQ ID NO: 269] — the same, 2
- TFEFTSFFY [SEQ ID NO: 212] — higher, 3
- STVHYPKVY (Influenza Virus) [SEQ ID NO: 265] — the same, 2
- VSFDQNLDY (Influenza Virus) [SEQ ID NO: 87] — the same, 2
- MLANIDLKY [SEQ ID NO: 210] — higher, 3
- LVSDGGPNLY (Influenza Virus) [SEQ ID NO: 213] — higher, 3
- RVSKMGVDEY (Influenza Virus) [SEQ ID NO: 267] — lower, 1
- YVDGFEPNGY (Influenza Virus) [SEQ ID NO: 167] — the same, 2
- VSHCRATEY (Influenza Virus) [SEQ ID NO: 169] — lower, 1
- WSQDPTMLY (Influenza Virus) [SEQ ID NO: 270] — higher, 4

The sequences below were run on HLA-A2 supertype (A*0201, A*0202, A*0203, A*0206, A*6802).
Format: binding, human

Point of comparison: FQGRGVFEL [SEQ ID NO: 116], “# Alleles Bound” value 4. Against it:
- ALLKHRFEI [SEQ ID NO: 171] — the same, 4
- LLIDGTASL (Influenza Virus) [SEQ ID NO: 220] — higher, 5
- YINTALLNA (Influenza Virus) [SEQ ID NO: 175] — higher, 5
- CVLEAMAFL (Influenza Virus) [SEQ ID NO: 215] — the same, 4
- RMGTVTTEV (Influenza Virus) [SEQ ID NO: 72] — the same, 4
- MAWTVVNSI (Influenza Virus) [SEQ ID NO: 172] — higher, 5
- IILKANFSV (Influenza Virus) [SEQ ID NO: 144] — lower, 3
- AQMALQLFI (Influenza Virus) [SEQ ID NO: 223] — the same, 4
- QIRGFVYFV (Influenza Virus) [SEQ ID NO: 217] — the same, 4

What follows are sequences tested on HLA-A24 supertype (A*2301, A*2402, A*2902, A*3002).
Format: binding, human

Point of comparison: “HMMIWHSNL (Influenza Virus) [SEQ ID NO: 129]”, “# Alleles Bound” value 3. Against it:
- FMQALQLLF (Influenza Virus) [SEQ ID NO: 159] — the same, 3
- IFLARSALI (Influenza Virus) [SEQ ID NO: 130] — lower, 2
- FFENKSETW (Influenza Virus) [SEQ ID NO: 193] — lower, 2
- SYINRTGTF [SEQ ID NO: 247] — the same, 3
- SWPDGANINF (Influenza Virus) [SEQ ID NO: 101] — lower, 2
- LWILDRLFF (Influenza Virus) [SEQ ID NO: 84] — the same, 3
- LYASPQLEGF (Influenza Virus) [SEQ ID NO: 194] — lower, 2
- MFLAMITYI [SEQ ID NO: 245] — lower, 2
- KFEEIRWLI (Influenza Virus) [SEQ ID NO: 158] — lower, 2
- SWPDGANIPF (Influenza Virus) [SEQ ID NO: 100] — lower, 2
- CFMYSDFHF (Influenza Virus) [SEQ ID NO: 190] — the same, 3
- FFLTQGALL (Influenza Virus) [SEQ ID NO: 98] — the same, 3
- WWTSNSIIVF (Influenza Virus) [SEQ ID NO: 99] — lower, 2
- WMACHSAAF [SEQ ID NO: 131] — lower, 2
- LYNKMEFEPF (Influenza Virus) [SEQ ID NO: 297] — lower, 2
- SYLIRALTL [SEQ ID NO: 244] — lower, 2
- IYRRFKYGL (Influenza Virus) [SEQ ID NO: 85] — lower, 2
- WMMAMKYPI [SEQ ID NO: 295] — lower, 2
- RYTKTTYWW (Influenza Virus) [SEQ ID NO: 246] — lower, 2
- FYRYGFVANF (Influenza Virus) [SEQ ID NO: 248] — lower, 2
- EWLKTRPIL (Influenza Virus) [SEQ ID NO: 75] — lower, 2
- KFAAICTHL (Influenza Virus) [SEQ ID NO: 189] — lower, 2
- MYQKCCTLF (Influenza Virus) [SEQ ID NO: 251] — the same, 3
- EYIMKGVYI (Influenza Virus) [SEQ ID NO: 192] — lower, 2
- VFVIREPFI (Influenza Virus) [SEQ ID NO: 97] — lower, 2
- MYQKCCNLF (Influenza Virus) [SEQ ID NO: 250] — lower, 2
- FYIQMCTEL [SEQ ID NO: 128] — lower, 2
- HYPKVYKTYF (Influenza Virus) [SEQ ID NO: 296] — lower, 2

What follows are sequences tested on HLA-B7 supertype (B*0702, B*3501, B*5101, B*5301, B*5401).
Format: binding, human

Point of comparison: SPGMMMGMF [SEQ ID NO: 256], “# Alleles Bound” value 1. Against it:
- SPYNSRFESV (Influenza Virus) [SEQ ID NO: 104] — higher, 3
- FPSSSYRRPV (Influenza Virus) [SEQ ID NO: 260] — higher, 4
- GPALSINEL (Influenza Virus) [SEQ ID NO: 306] — the same, 1
- VPASRYLTDM (Influenza Virus) [SEQ ID NO: 147] — higher, 2

The sequences below were run on HLA-B44 supertype (B*1801, B*4001, B*4002, B*4403, B*4501).
Format: binding, human

Point of comparison: “SETLQRFAW (Influenza Virus) [SEQ ID NO: 152]”, “# Alleles Bound” value 3. Against it:
- EECSCYPRY (Influenza Virus) [SEQ ID NO: 108] — higher, 4
- GERQNATEI [SEQ ID NO: 135] — higher, 4
- SEQAAEAMEV [SEQ ID NO: 78] — higher, 6
- FEMIWDPNG (Influenza Virus) [SEQ ID NO: 109] — the same, 3
- MEFSLTDPRL (Influenza Virus) [SEQ ID NO: 201] — higher, 6
- SEFNKACELT (Influenza Virus) [SEQ ID NO: 200] — higher, 5
- GEISPLPSL [SEQ ID NO: 151] — higher, 6
- MEVASQARQM (Influenza Virus) [SEQ ID NO: 79] — higher, 5
- LEEMSRDWLM (Influenza Virus) [SEQ ID NO: 149] — higher, 4
- CEKLEQSGL [SEQ ID NO: 262] — higher, 4
- EEVRHRLKI (Influenza Virus) [SEQ ID NO: 160] — higher, 5
- FERATIMAA (Influenza Virus) [SEQ ID NO: 138] — higher, 4
- EECSCYPDY (Influenza Virus) [SEQ ID NO: 107] — the same, 3
- GEETIEERF (Influenza Virus) [SEQ ID NO: 198] — higher, 5
- WEKYCVLEI (Influenza Virus) [SEQ ID NO: 202] — higher, 5
- RELVRKTRFL (Influenza Virus) [SEQ ID NO: 307] — higher, 4
- QEIRTFSFQL [SEQ ID NO: 163] — higher, 4
- YEAIEECLI (Influenza Virus) [SEQ ID NO: 205] — higher, 4
- LEVEQEIRT (Influenza Virus) [SEQ ID NO: 162] — higher, 4
- AESRKLLLIV (Influenza Virus) [SEQ ID NO: 204] — the same, 3
- IEKIRPLLI (Influenza Virus) [SEQ ID NO: 263] — higher, 5
- AESRKLLLI [SEQ ID NO: 203] — higher, 4
- FERATIMAAF (Influenza Virus) [SEQ ID NO: 139] — higher, 5
- KEDKRYGPAL (Influenza Virus) [SEQ ID NO: 309] — higher, 6
- HENRMVLAST (Influenza Virus) [SEQ ID NO: 77] — higher, 4
- DEALKMTIA (Influenza Virus) [SEQ ID NO: 148] — higher, 4
- RESRNPGNA (Influenza Virus) [SEQ ID NO: 136] — higher, 4
- LETLILLRAF (Influenza Virus) [SEQ ID NO: 150] — higher, 4
- PELRSLSSWI (Influenza Virus) [SEQ ID NO: 199] — higher, 4
- IESVNNAVV (Influenza Virus) [SEQ ID NO: 264] — higher, 6
- FEDLRVSSF [SEQ ID NO: 137] — higher, 5
- FEQITFMQA (Influenza Virus) [SEQ ID NO: 161] — higher, 5
- TEVETYVLSI [SEQ ID NO: 76] — higher, 4
